This passage reports TGI and GI50 results from PubChem BioAssay (NCI).

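Five compound concentrations were applied to cells in 96-well plates for 48 hours; endpoints were derived by simple linear interpolation of the resulting dose-response curve. Abbreviation: GI50, concentration required for 50% inhibition of growth. TGI: concentration producing complete growth inhibition.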

For the first assay, the system named is SK-MEL-5 melanoma. The experiment in a line: inhibition of tumour cell growth, NCI panel, 48 h.
With `CC1(O)C(C)(O)C2(C)O[Te]3(OC12C)OC1(C)C(C)(O)C(C)(O)C1(C)O3` (configuration not stated), the TGI is 32.7 µM.
On the same count and under the same terms, in the case of `O=C1COc2cc(NC(=S)Nc3ccccc3)ccc2N1` it was more than 100 µM; in that of `O=S(=O)(C1=CC(S(=O)(=O)c2ccccc2)CN(Cc2ccccc2)C1c1cccc2ccccc12)c1ccccc1` (configuration not stated), more than 69 µM; in that of `O=C1C=C(Nc2ccccc2C(=O)CC(=O)C(=O)Nc2cccc([N+](=O)[O-])c2)c2ccccc2C1=O`, 26.3 µM.
Same read-out and setting: in the case of `O=C(Nc1ccc(Cl)cc1)C1C(=O)C(=O)N(c2ccc(Cl)cc2)C1=O` (configuration not stated) it was more than 100 µM.
For the compound `CCC[CH2][Sn]([CH2]CCC)([O]C(=O)CN)[O]C(=O)CN`, the GI50 was 66.6 µM and the TGI was more than 100 µM.
In turn, `O=C(Nc1ccc(C(F)(F)F)cc1[N+](=O)[O-])C(=O)C1NC(=S)NC1=O` (configuration not stated) registered a TGI of more than 100 µM.
On to `COc1cc(NCC(C#N)C#N)ccc1N=Nc1ccc(Cl)cc1`, for which the TGI worked out at 45.9 µM.
In turn, `CC(=O)c1ccc(NC(=O)/C(CC(=O)c2sc(-c3cccnc3)nc2C)=N/NC(N)=O)cc1` showed a TGI of more than 100 µM.
On the same count and under the same terms, in the case of `Cc1ccc(S(=O)(=O)OC2CC=CC2)cc1` it was more than 100 µM.
In the case of `COc1ccc2c(c1)OC1=C(C(=O)OC1)C2c1cc(OC)c2c(c1)OCCO2` (configuration not stated), the GI50 is 0.0347 µM and the TGI was 0.535 µM.
With `C=CC[P@]1(=O)O[C@H](c2ccccc2)[C@H](C)N1C`, the TGI is more than 100 µM.
Regarding `O=C(Nc1cccc(O)c1)C(=O)C1C(=O)NC(=S)NC1=O`, the TGI was more than 100 µM.
Turning to `O=C1N/C(=C\[N+](=O)[O-])c2ccccc21`, the TGI is more than 100 µM.
For the compound `CCN(CC)CCNC(Cc1ccccc1)c1ccc(OCc2ccccc2)cc1` (configuration not stated), the GI50 was 1.97 µM and the TGI was determined as 4.46 µM.
Compound `COC(=O)C(=O)CC(=O)CCn1[nH]c(=O)c(Cl)c(Cl)c1=O` returned a TGI of more than 100 µM.
On to `OCC12C=CC(C1)c1ccccc12` (configuration not stated), for which the TGI is more than 100 µM.
On the same count and under the same terms, in the case of `CCOC1C(Br)Cn2c(=O)c3cc4ccccc4cc3c(=O)n2C1C` (configuration not stated) it was more than 100 µM.
Compound `COc1ccc(NC(=O)CC/C(CC(=O)c2ccco2)=N/NC(=O)C(N)=O)cc1` returned a TGI of more than 100 µM.
`NC(CCCC(N)P(=O)(O)O)P(=O)(O)O` (configuration not stated): the TGI is more than 100 µM.
Take `CCOC(=O)[CH-]C(=O)C12CC3CC(CC(C3)C1)C2.CCOC(=O)[CH-]C(=O)C12CC3CC(CC(C3)C1)C2.CC[O-].CC[O-].[Ti+4]`: the GI50 is more than 100 µM and the TGI was more than 100 µM.
`CC(=O)C1C(c2ccccc2)C2(C)OC(=O)C(C#N)C12C` (configuration not stated) showed a TGI of more than 100 µM.
On the same count and under the same terms, in the case of `C[C@]12CC=CC(=O)[C@@]1(C)CCC(=O)C2` it was more than 100 µM; in that of `CC(=O)Oc1cc2c(cc1OC(C)=O)C1(C)CCC2(C)c2cc(OC(C)=O)c(OC(C)=O)cc21`, 54.7 µM; in that of `CCCC1(CC(=O)O)OCCc2c1[nH]c1ccccc21` (configuration not stated), more than 100 µM.
On the same count and under the same terms, in the case of `COc1ccc2nc3cc(Cl)ccc3c(Sc3ccc([N+](=O)[O-])cc3C)c2c1` it was more than 100 µM.

The subject of a further assay is HT29 colon. The assay can be described thus: inhibition of tumour cell growth, NCI panel, 48 h.
Regarding `CCC1=CCN(c2cc(C)ccn2)OC1c1ccc(OC)cc1` (configuration not stated), the TGI was 50.2 µM.
Consider `CC(=O)Oc1c(C)c(-c2ccccc2)c(C)c(-c2ccccc2)c1C(=S)c1ccccc1`, for which the TGI is more than 100 µM.
`N#CCC(=O)N/N=C1/C(=O)N(c2ccc(Cl)cc2)C(=O)C(=O)C1c1nc2ccccc2s1` (configuration not stated): the TGI is more than 100 µM.
On the same count and under the same terms, in the case of `CCCCCCCCCCCC(=O)OCCOCCOCCOCCOCCOC(=O)CCCCCCCCCCC` it was more than 100 µM.
On the same count and under the same terms, in the case of `COc1ccc(C=O)cc1O[Si](C)(C)C(C)(C)C` it was more than 100 µM.
On the same count and under the same terms, in the case of `CC1(O)C(C)(O)C2(C)O[Te]3(OC12C)OC1(C)C(C)(O)C(C)(O)C1(C)O3` (configuration not stated) it was more than 100 µM; in that of `O=C1COc2cc(NC(=S)Nc3ccccc3)ccc2N1`, more than 100 µM.
The compound `O=S(=O)(C1=CC(S(=O)(=O)c2ccccc2)CN(Cc2ccccc2)C1c1cccc2ccccc12)c1ccccc1` (configuration not stated) displayed a TGI of more than 69 µM.
The same measure, in the same setting: in the case of `O=C1C=C(Nc2ccccc2C(=O)CC(=O)C(=O)Nc2cccc([N+](=O)[O-])c2)c2ccccc2C1=O` it was more than 100 µM; in that of `O=C(Nc1ccc(Cl)cc1)C1C(=O)C(=O)N(c2ccc(Cl)cc2)C1=O` (configuration not stated), more than 100 µM.
For `CCC[CH2][Sn]([CH2]CCC)([O]C(=O)CN)[O]C(=O)CN`, the GI50 is more than 100 µM and the TGI is more than 100 µM.
For `COc1ccc2c(c1)C(=O)CCc1cc(OC)c(OC)c(OC)c1-2`, the GI50 was less than 0.01 µM.
The compound `O=C(Nc1ccc(C(F)(F)F)cc1[N+](=O)[O-])C(=O)C1NC(=S)NC1=O` (configuration not stated) had a TGI of more than 100 µM.
`COc1cc(NCC(C#N)C#N)ccc1N=Nc1ccc(Cl)cc1` showed a TGI of 30.5 µM.
The same measure, in the same setting: in the case of `CC(=O)c1ccc(NC(=O)/C(CC(=O)c2sc(-c3cccnc3)nc2C)=N/NC(N)=O)cc1` it was more than 100 µM.
On the same count and under the same terms, in the case of `Cc1ccc(S(=O)(=O)OC2CC=CC2)cc1` it was more than 100 µM.
Take `COc1ccc2c(c1)OC1=C(C(=O)OC1)C2c1cc(OC)c2c(c1)OCCO2` (configuration not stated): the GI50 was 0.0366 µM.
`C=CC[P@]1(=O)O[C@H](c2ccccc2)[C@H](C)N1C` had a TGI of more than 100 µM.
Consider `O=C(Nc1cccc(O)c1)C(=O)C1C(=O)NC(=S)NC1=O`, for which the TGI is more than 100 µM.
As to `O=C1N/C(=C\[N+](=O)[O-])c2ccccc21`, the TGI was more than 100 µM.
In the case of `CCN(CC)CCNC(Cc1ccccc1)c1ccc(OCc2ccccc2)cc1` (configuration not stated), the GI50 is 2.44 µM and the TGI turned out to be 11.8 µM.
For `COC(=O)C(=O)CC(=O)CCn1[nH]c(=O)c(Cl)c(Cl)c1=O`, the TGI was more than 100 µM.
On the same count and under the same terms, in the case of `OCC12C=CC(C1)c1ccccc12` (configuration not stated) it was more than 100 µM.
Still for that read-out and setting: in the case of `CCOC1C(Br)Cn2c(=O)c3cc4ccccc4cc3c(=O)n2C1C` (configuration not stated) it was more than 100 µM.
On the same count and under the same terms, in the case of `COc1ccc(NC(=O)CC/C(CC(=O)c2ccco2)=N/NC(=O)C(N)=O)cc1` it was more than 100 µM; in that of `NC(CCCC(N)P(=O)(O)O)P(=O)(O)O` (configuration not stated), more than 100 µM.
As to `CCOC(=O)[CH-]C(=O)C12CC3CC(CC(C3)C1)C2.CCOC(=O)[CH-]C(=O)C12CC3CC(CC(C3)C1)C2.CC[O-].CC[O-].[Ti+4]`, the GI50 was more than 100 µM and the TGI was more than 100 µM.
In the case of `C[C@]12CC=CC(=O)[C@@]1(C)CCC(=O)C2`, the TGI was more than 100 µM.
Same read-out and setting: in the case of `CC(=O)Oc1cc2c(cc1OC(C)=O)C1(C)CCC2(C)c2cc(OC(C)=O)c(OC(C)=O)cc21` it was more than 100 µM.
